{"source": "ChEMBL document CHEMBL1147314", "about": "“A pentacyclic triterpene with anti-inflammatory and analgesic activity from the roots of Commiphora merkeri” (1989)", "key": {"[1]": {"system": "Rattus norvegicus", "test": "Analgesic activity in rat assessed as inhibition of writhing at 100 mg/kg", "assay_type": "functional"}, "[2]": {"system": "Rattus norvegicus", "test": "Antiinflammatory activity in rat assessed as inhibition of carrageenan-induced edema at 100 mg/kg", "assay_type": "functional"}}}
{"smiles": "CC1(C)CC[C@]2(C)CC[C@]3(C)C(=CC[C@@H]4[C@@]5(C)C[C@@H](O)[C@H](O)[C@@](C)(CO)[C@@H]5CC[C@]43C)[C@@H]2C1", "values": [{"measurement": "inhibition in vivo at 100 mg/kg", "setting": "[1]", "value": 37, "unit": "%"}, {"measurement": "inhibition in vivo at 100 mg/kg", "setting": "[2]", "value": 28, "unit": "%"}]}
{"smiles": "CC(=O)Oc1ccccc1C(=O)O", "note": "[ASPIRIN]", "values": [{"measurement": "inhibition in vivo at 100 mg/kg", "setting": "[1]", "value": 85, "unit": "%"}]}
{"smiles": "CCCCC1C(=O)N(c2ccccc2)N(c2ccccc2)C1=O", "note": "[PHENYLBUTAZONE]", "values": [{"measurement": "inhibition in vivo at 100 mg/kg", "setting": "[2]", "value": 64, "unit": "%"}]}
